The values below come from ChEMBL document CHEMBL1146011, “Diaryl substituted pyrrolidinones and pyrrolones as 5-HT2C inhibitors: synthesis and biological evaluation” (Bioorg Med Chem Lett, 2006).

Assay [1] has as its target 5-hydroxytryptamine receptor 2B (Homo sapiens, UniProt P41595). In words: Binding affinity to human 5HT2B receptor.
Assay [2] has as its target 5-hydroxytryptamine receptor 2A (Homo sapiens, UniProt P28223). In words: Binding affinity to human 5HT2A receptor.
Assay [3] addresses T1, 5-hydroxytryptamine receptor 2C (Homo sapiens, UniProt P28335).
T1 sequence (P28335 whole entry): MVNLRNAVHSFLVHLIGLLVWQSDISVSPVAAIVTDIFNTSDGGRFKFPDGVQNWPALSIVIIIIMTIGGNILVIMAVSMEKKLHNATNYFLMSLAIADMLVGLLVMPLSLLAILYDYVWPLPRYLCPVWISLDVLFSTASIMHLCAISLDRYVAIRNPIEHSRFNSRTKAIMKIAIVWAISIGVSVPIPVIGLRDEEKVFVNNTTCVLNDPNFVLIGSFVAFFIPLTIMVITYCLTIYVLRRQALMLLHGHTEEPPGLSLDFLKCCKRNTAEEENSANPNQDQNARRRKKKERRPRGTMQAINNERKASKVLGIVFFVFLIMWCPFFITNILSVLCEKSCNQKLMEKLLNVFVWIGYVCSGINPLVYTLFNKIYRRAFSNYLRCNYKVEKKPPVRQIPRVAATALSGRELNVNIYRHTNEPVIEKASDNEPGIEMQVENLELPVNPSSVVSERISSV
In words: Binding affinity to human 5HT2C receptor.

A value given as a limit tells only on which side of the number the result lay.

Sequence of 5-hydroxytryptamine receptor 2A (P28223 whole entry): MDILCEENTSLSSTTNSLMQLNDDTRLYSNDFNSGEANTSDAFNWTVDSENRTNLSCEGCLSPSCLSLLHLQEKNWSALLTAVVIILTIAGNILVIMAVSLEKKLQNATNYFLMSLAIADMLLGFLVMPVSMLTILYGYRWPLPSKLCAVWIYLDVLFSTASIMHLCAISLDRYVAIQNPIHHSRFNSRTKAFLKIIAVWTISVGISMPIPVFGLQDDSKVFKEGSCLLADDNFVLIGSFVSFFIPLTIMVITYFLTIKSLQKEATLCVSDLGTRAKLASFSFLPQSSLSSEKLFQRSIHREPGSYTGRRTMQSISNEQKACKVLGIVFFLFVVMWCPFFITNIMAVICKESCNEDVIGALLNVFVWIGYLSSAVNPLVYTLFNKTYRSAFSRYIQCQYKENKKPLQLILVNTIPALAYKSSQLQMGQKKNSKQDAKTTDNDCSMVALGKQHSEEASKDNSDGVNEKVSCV
Sequence of 5-hydroxytryptamine receptor 2B (P41595 whole entry): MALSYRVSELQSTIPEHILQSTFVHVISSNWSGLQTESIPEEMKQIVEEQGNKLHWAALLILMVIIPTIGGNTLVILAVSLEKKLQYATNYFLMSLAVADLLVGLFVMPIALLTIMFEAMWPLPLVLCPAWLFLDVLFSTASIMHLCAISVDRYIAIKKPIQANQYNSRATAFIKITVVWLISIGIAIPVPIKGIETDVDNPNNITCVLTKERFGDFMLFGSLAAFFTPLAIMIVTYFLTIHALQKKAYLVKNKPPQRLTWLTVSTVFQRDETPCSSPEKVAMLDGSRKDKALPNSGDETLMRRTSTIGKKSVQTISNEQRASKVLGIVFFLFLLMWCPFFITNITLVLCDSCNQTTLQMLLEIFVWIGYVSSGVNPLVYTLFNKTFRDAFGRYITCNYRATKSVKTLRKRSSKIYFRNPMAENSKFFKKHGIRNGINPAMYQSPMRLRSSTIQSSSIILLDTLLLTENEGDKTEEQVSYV

A word on the Ki: it is a measure of affinity in units of concentration, obtained from inhibition or displacement. Low readings indicate higher affinity, high ones lower affinity. Consider `O=C1C(c2ccc(Cl)c(Cl)c2)=CCN1c1ccc(Cl)c(OCCN2CCCCC2)c1`, for which the Ki in assay [1] was more than 1580 nM; in assay [2] it was more than 1260 nM; in assay [3], 63.1 nM.

As to `CC(=O)Nc1ccc(N2CCC(c3ccc(Cl)c(Cl)c3)C2=O)cc1OCCN1CCCCC1` (configuration not stated), the Ki in assay [1] is more than 1580 nM; in assay [2] it was more than 3160 nM; in assay [3], 316 nM.

For the compound `COc1ccc(N2CCC(c3ccc(Cl)c(Cl)c3)C2=O)cc1OCCN1CCC(C)(C)CC1` (configuration not stated), the Ki in assay [1] is more than 1000 nM; in assay [2], 398 nM; in assay [3] it was 12.6 nM.

As to `COc1ccc(N2CC=C(c3ccc(Br)cc3)C2=O)cc1OCCN1CCCCC1`, the Ki is 200 nM in assay [1], 158 nM in assay [2] and 1.26 nM in assay [3].

On to `COc1ccc(N2CCC(c3ccc(Cl)c(Cl)c3)C2=O)cc1OCCN1CCC(C)CC1` (configuration not stated), for which the results for the Ki in assay [1], in assay [2] and in assay [3] were 2000 nM, 398 nM and 12.6 nM, respectively.

As to `COc1ccc(N2CC=C(c3ccc(C)cc3)C2=O)cc1OCCN1CCC(C)CC1`, the Ki in assay [1] is 1580 nM; in assay [2], 631 nM; in assay [3], 1.58 nM.

Turning to `COc1ccc(N2CC=C(c3ccc(Cl)c(Cl)c3)C2=O)cc1OCCN1CCC(F)(F)CC1`, the figures for the Ki in assay [1], in assay [2] and in assay [3] were more than 5010 nM, more than 5010 nM and 7.94 nM, respectively.

Turning to `COc1ccc(N2CC=C(c3ccc(OC)c(OCCN4CCCCC4)c3)C2=O)cc1Cl`, the Log Ki in assay [1] was more than -6.4. For the same compound, the Ki in assay [2] was more than 6310 nM; in assay [3], 5.01 nM.

Regarding `COc1ccc(C2CCN(c3cccc(F)c3)C2=O)cc1OCCN1CCCCC1` (configuration not stated), the Ki in assay [1] was more than 794 nM; in assay [2], more than 1260 nM; in assay [3] it was 20 nM.

On to `COc1ccc(N2CC=C(c3ccc(Cl)cc3)C2=O)cc1OCCN1CCC(C)CC1`, for which the Ki in assay [1] was more than 1580 nM; in assay [2] it was 631 nM; in assay [3], 6.31 nM.

As to `COc1ccc(N2CC=C(c3ccc(F)cc3)C2=O)cc1OCCN1CCC(C)CC1`, the values for the Ki in assay [1], in assay [2] and in assay [3] were 1260 nM, 251 nM and 3.16 nM, respectively.

Regarding `COc1ccc(N2CC=C(c3ccc(OC)c(OCCN4CCCCC4)c3)C2=O)cc1`, the values for the Ki in assay [1], in assay [2] and in assay [3] were more than 2000 nM, more than 5010 nM and 10 nM, respectively.

With `COc1ccc(C2=C(C)CN(c3ccc(Cl)c(Cl)c3)C2=O)cc1OCCN1CCCCC1`, the Ki in assay [1] is 200 nM; in assay [2] it was 501 nM; in assay [3], 126 nM.

Regarding `COc1ccc(N2CCC(c3ccc(OC)c(OCCN4CCCCC4)c3)C2=O)cc1` (configuration not stated), the results for the Ki in assay [1], in assay [2] and in assay [3] were more than 10000 nM, more than 10000 nM and 100 nM, respectively.

Consider `COc1ccc(C2=C(C)CN(c3ccc(Cl)cc3)C2=O)cc1OCCN1CCCCC1`, for which the values for the Ki in assay [1], in assay [2] and in assay [3] were 501 nM, 398 nM and 200 nM, respectively.

With `COc1ccc(N2CC=C(c3cccc(Cl)c3)C2=O)cc1OCCN1CCC(C)CC1`, the Ki was 501 nM in assay [1], 794 nM in assay [2] and 5.01 nM in assay [3].

Turning to `COc1ccc(N2CCC(c3ccc(F)cc3)C2=O)cc1OCCN1CCCCC1` (configuration not stated), the Ki was more than 5010 nM in assay [1], more than 2510 nM in assay [2] and 100 nM in assay [3].

With `COc1ccc(N2CC=C(c3ccc(OC)c(OCCN4CCCCC4)c3)C2=O)cc1F`, the figures for the Ki in assay [1], in assay [2] and in assay [3] were more than 1580 nM, more than 3160 nM and 6.31 nM, respectively.

Regarding `COc1ccc(C2=CCN(c3cccc(F)c3)C2=O)cc1OCCN1CCCCC1`, the Ki in assay [1] was 501 nM; in assay [2], 1000 nM; in assay [3], 6.31 nM.

As to `COc1ccc(N2CC=C(c3ccc(Cl)c(Cl)c3)C2=O)cc1OCCN1CCC(C(C)C)CC1`, the Ki in assay [1] is more than 1000 nM; in assay [2] it was more than 794 nM; in assay [3], 12.6 nM.

With `COc1ccc(N2CCC(c3ccc(Cl)c(Cl)c3)C2=O)cc1OCCN1CCC(C(C)C)CC1` (configuration not stated), the figures for the Ki in assay [1], in assay [2] and in assay [3] were more than 1000 nM, 398 nM and 25.1 nM, respectively.

`COc1ccc(N2CC=C(c3cccc(C(F)(F)F)c3)C2=O)cc1OCCN1CCCCC1`: the Ki in assay [1] is more than 794 nM; in assay [2], 794 nM; in assay [3], 5.01 nM.

Consider `CC(=O)Nc1ccc(N2CC=C(c3ccc(Cl)c(Cl)c3)C2=O)cc1OCCN1CCCCC1`, for which the values for the Ki in assay [1], in assay [2] and in assay [3] were more than 1580 nM, more than 1580 nM and 50.1 nM, respectively.

As for `COc1ccc(N2CC=C(c3ccc(F)cc3)C2=O)cc1OCCN1CCCCC1`, the figures for the Ki in assay [1], in assay [2] and in assay [3] were 1000 nM, 398 nM and 6.31 nM, respectively.

Consider `COc1ccc(C2CCN(c3ccc(Cl)c(Cl)c3)C2=O)cc1OCCN1CCCCC1` (configuration not stated), for which the Ki in assay [1] is 398 nM; in assay [2], 794 nM; in assay [3], 10 nM.

Regarding `COc1ccc(N2CC=C(c3cccc(Cl)c3)C2=O)cc1OCCN1CCCCC1`, the Ki in assay [1] was 631 nM; in assay [2], 631 nM; in assay [3], 2.51 nM.

In the case of `COc1ccc(N2CC=C(c3ccc(C(F)(F)F)cc3)C2=O)cc1OCCN1CCCCC1`, the Ki in assay [1] was more than 1000 nM; in assay [2], more than 1260 nM; in assay [3] it was 12.6 nM.

As to `COc1ccc(N2CCC(c3ccc(Cl)c(Cl)c3)C2=O)cc1OCCN1CCCCC1` (configuration not stated), the Ki in assay [1] is 1580 nM; in assay [2], 501 nM; in assay [3], 12.6 nM.

Consider `Cc1ccc(N2CC=C(c3ccc(Cl)c(Cl)c3)C2=O)cc1OCCN1CCCCC1`, for which the values for the Ki in assay [1], in assay [2] and in assay [3] were more than 2000 nM, more than 1260 nM and 126 nM, respectively.

On to `COc1ccc(N2CCC(c3cccc(Cl)c3)C2=O)cc1OCCN1CCCCC1` (configuration not stated), for which the Ki is more than 1000 nM in assay [1], more than 1000 nM in assay [2] and 25.1 nM in assay [3].

Consider `COc1ccc(N2CCC(c3ccc(OC)c(OCCN4CCCCC4)c3)C2=O)cc1F` (configuration not stated), for which the Ki in assay [1] was more than 1580 nM; in assay [2], more than 1000 nM; in assay [3], 15.8 nM.

On to `COc1ccc(N2CCC(c3ccc(OC)c(OCCN4CCCCC4)c3)C2=O)cc1Cl` (configuration not stated), for which the values for the Ki in assay [1], in assay [2] and in assay [3] were 1580 nM, more than 2000 nM and 20 nM, respectively.

In assay [1], `COc1ccc(C2(C)CCN(c3ccc(Cl)c(Cl)c3)C2=O)cc1OCCN1CCCCC1` (configuration not stated) displayed a Log Ki of more than -6.3. In addition, the Ki in assay [2] is 501 nM; in assay [3], 10 nM.

Take `Cc1ccc(N2CCC(c3ccc(Cl)c(Cl)c3)C2=O)cc1OCCN1CCCCC1` (configuration not stated): the Ki in assay [1] is more than 1580 nM; in assay [2], more than 1580 nM; in assay [3], 398 nM.

With `COc1ccc(N2CC=C(c3ccc(Cl)c(Cl)c3)C2=O)cc1OCCN1CCCC1`, the Ki was more than 1580 nM in assay [1], 631 nM in assay [2] and 3.98 nM in assay [3].

Regarding `O=C1C(c2ccc(Cl)c(Cl)c2)=CCN1c1ccc(N2CCCC2)c(OCCN2CCCCC2)c1`, the Ki is more than 10000 nM in assay [1], more than 1260 nM in assay [2] and 200 nM in assay [3].

On to `COc1ccc(N2CC=C(c3ccc(Cl)c(Cl)c3)C2=O)cc1OCCN1CCC(C)(C)CC1`, for which the results for the Ki in assay [1], in assay [2] and in assay [3] were 316 nM, more than 6310 nM and 3.98 nM, respectively.

As for `COc1ccc(N2CC=C(c3cccc(F)c3)C2=O)cc1OCCN1CCCCC1`, the Ki in assay [1] was 501 nM; in assay [2], 631 nM; in assay [3] it was 0.794 nM.

Consider `COc1ccc(C2=CCN(c3ccc(Cl)c(Cl)c3)C2=O)cc1OCCN1CCCCC1`, for which the Ki in assay [1] was 126 nM; in assay [2], 1260 nM; in assay [3], 5.01 nM.

Consider `O=C1C(c2ccc(Cl)c(Cl)c2)CCN1c1ccc(Cl)c(OCCN2CCCCC2)c1` (configuration not stated), for which the figures for the Ki in assay [1], in assay [2] and in assay [3] were more than 1580 nM, more than 1000 nM and 100 nM, respectively.

On to `COc1ccc(N2CC=C(c3ccc(Cl)cc3)C2=O)cc1OCCN1CCCCC1`, for which the Ki was more than 1580 nM in assay [1], 1000 nM in assay [2] and 7.94 nM in assay [3].

With `COc1ccc(N2CC=C(c3ccc(Cl)c(F)c3)C2=O)cc1OCCN1CCC(C)CC1`, the Ki was more than 2000 nM in assay [1], more than 1260 nM in assay [2] and 7.94 nM in assay [3].

For the compound `O=C1C(c2ccc(Cl)c(Cl)c2)=CCN1c1ccc(OC(F)(F)F)c(OCCN2CCCCC2)c1`, the Ki was more than 3160 nM in assay [1], more than 10000 nM in assay [2] and more than 1260 nM in assay [3].

Turning to `COc1ccc(N2CC=C(c3ccc(C(F)(F)F)cc3)C2=O)cc1OCCN1CCC(C)CC1`, the Ki is more than 10000 nM in assay [1], 1580 nM in assay [2] and 12.6 nM in assay [3].

On to `O=C1C(c2ccc(Cl)c(Cl)c2)CCN1c1ccc(OC(F)(F)F)c(OCCN2CCCCC2)c1` (configuration not stated), for which the Ki in assay [1] is 1580 nM; in assay [2], 3160 nM; in assay [3] it was 794 nM.

For `COc1ccc(N2CC=C(c3ccc(Cl)c(Cl)c3)C2=O)cc1OCCN1CCOCC1`, the Ki in assay [1] is more than 1580 nM; in assay [2], 3980 nM; in assay [3], 6.31 nM.

Take `COc1ccc(N2CCC(c3cccc(F)c3)C2=O)cc1OCCN1CCCCC1` (configuration not stated): the Ki is more than 1580 nM in assay [1], more than 7940 nM in assay [2] and 100 nM in assay [3].

For the compound `COc1ccc(N2CC=C(c3ccc(C)cc3)C2=O)cc1OCCN1CCCCC1`, the Ki is more than 1000 nM in assay [1], more than 1000 nM in assay [2] and 0.316 nM in assay [3].

Compound `COc1ccc(N2CC=C(c3ccc(Br)cc3)C2=O)cc1OCCN1CCC(C)CC1` displayed a Log Ki in assay [1] of more than -6.2. The Ki is 398 nM in assay [2] and 3.98 nM in assay [3].
